# Measured values taken from patent publication US6410792B1, “Amide derivatives and methods for using the same as selective neuropeptide Y receptor antagonists” (Bayer Corporation, priority 1997, dated 2002).
# Read-outs that look alike come from different tables or passages of the source.
# Experiments:
# Human NPY5 receptor = molecular target: T1, Human NPY5 receptor (Homo sapiens, UniProt Q15761); assay: Human NPY5 receptor binding assay ([125I]PYY, membrane protein); conditions: [125I]PYY binding, read-out: hNPY5 IC50
# T1 sequence (Q15761 1-445): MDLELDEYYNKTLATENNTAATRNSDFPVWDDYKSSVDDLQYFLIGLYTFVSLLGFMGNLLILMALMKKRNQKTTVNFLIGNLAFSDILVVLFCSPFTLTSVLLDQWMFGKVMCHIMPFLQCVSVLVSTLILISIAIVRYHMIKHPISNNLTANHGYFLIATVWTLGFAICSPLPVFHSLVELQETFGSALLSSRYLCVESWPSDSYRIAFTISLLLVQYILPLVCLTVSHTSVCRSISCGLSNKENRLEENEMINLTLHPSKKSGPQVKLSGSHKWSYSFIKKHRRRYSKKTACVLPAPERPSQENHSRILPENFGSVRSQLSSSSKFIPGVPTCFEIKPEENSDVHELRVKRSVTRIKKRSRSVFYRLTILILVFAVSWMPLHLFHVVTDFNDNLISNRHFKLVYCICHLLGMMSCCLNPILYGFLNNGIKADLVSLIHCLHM
# In short: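 Competition against porcine [125I]PYY (75-100 pM) on receptor membranes, 2 h, room temperature, Tris-based pH 7.4 buffer with BSA and bacitracin. Bound radioactivity after filtration and ice-cold rinse counted by gamma or liquid scintillation; 1 μM PYY defines nonspecific binding.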
# Y2 receptor = molecular target: T2, Y2 receptor (Homo sapiens, UniProt P49146); assay: Y2 receptor binding assay ([125I]PYY, membrane protein); conditions: read-out: hNPY2 IC50
# T2 sequence (P49146 1-381): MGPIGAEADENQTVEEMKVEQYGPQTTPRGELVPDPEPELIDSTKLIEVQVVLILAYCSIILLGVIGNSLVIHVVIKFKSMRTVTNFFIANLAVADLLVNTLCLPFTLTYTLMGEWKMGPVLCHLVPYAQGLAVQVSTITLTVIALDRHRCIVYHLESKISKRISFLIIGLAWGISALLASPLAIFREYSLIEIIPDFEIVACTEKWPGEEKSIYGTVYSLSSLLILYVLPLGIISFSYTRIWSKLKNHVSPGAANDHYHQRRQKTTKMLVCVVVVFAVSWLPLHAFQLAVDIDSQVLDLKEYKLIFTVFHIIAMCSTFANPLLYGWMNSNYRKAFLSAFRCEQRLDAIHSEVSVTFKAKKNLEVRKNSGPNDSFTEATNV
# In short: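 Filtration binding with membrane protein and drug dilution, 2 h at room temperature with mixing, radioactivity counted by gamma or scintillation. Y2: 25 pM [125I]PYY in Krebs-Ringer bicarbonate pH 7.4 with 0.01% BSA, nonspecific by 1 μM NPY. Y4/PP1: 50 pM [125I]hPP in HEPES-buffered saline pH 7.4 with protease inhibitors and 0.3% BSA, nonspecific by 1 μM hPP.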
# [1] = [125I]PYY binding, membrane protein
SMILES,IC50 (Human NPY5 receptor) [µM],IC50 (Y2 receptor; [1]) [µM],IC50 (Y2 receptor) [µM]
"CCCC(=O)C1(c2ccccc2)CCN(CC(=O)Nc2ccc(C(=O)c3ccccc3)cc2)CC1 [Compound 74, N-(4-Benzoyl-phenyl)-2-(4-butyryl-4-phenyl-piperidin-1-yl)-acetamide]",0.4,> 5,–
"CCCC(=O)C1(c2ccccc2)CCN(CC(=O)Nc2ccc(C3CCCCC3)cc2)CC1 [Compound 75, 2-(4-Butyryl-4-phenyl-piperidin-1-yl)-N-(4-cyclohexyl-phenyl)-acetamide]",0.009,–,> 5
"O=C(CN1CCCC1c1cccnc1)Nc1ccc(C(=O)c2ccccc2)cc1 (stereo not drawn) [Compound 77, N-(4-Benzoyl-phenyl)-2-(2-pyridin-3-yl-pyrrolidin-1-yl)-acetamide]",2.6,> 5,–
"O=C(CN1CCC[C@H]1CN1CCCC1)Nc1ccc(C(=O)c2ccccc2)cc1 [Compound 78, N-(4-Benzoyl-phenyl)-2-(2S-pyrrolidin-1-ylmethyl-pyrrolidin-1-yl)-acetamide]",> 5,> 5,–
"O=C(CN1CCC[C@H]1CN1CCCC1)Nc1ccc(C2CCCCC2)cc1 [Compound 79, N-(4-Cyclohexyl-phenyl)-2-(2S-pyrrolidin-1-ylmethyl-pyrrolidin-1-yl)-acetamide]",3.5,> 5,–
"O=C(CN1CC[C@@H](O)C1)Nc1ccc(C2CCCCC2)cc1 [Compound 80, N-(4-Cyclohexyl-phenyl)-2-(3R-hydroxy-pyrrolidin-1-yl)-acetamide]",1.4,> 5,–
"O=C(CN1CC[C@@H](O)C1)Nc1ccc(C(=O)c2ccccc2)cc1 [Compound 81, N-(4-Benzoyl-phenyl)-2-(3R-hydroxy-pyrrolidin-1-yl)-acetamide]",> 5,> 5,–
"O=C(CN1CCC[C@@H]1C(O)(c1ccccc1)c1ccccc1)Nc1ccc(C(=O)c2ccccc2)cc1 [Compound 82, N-(4-Benzoyl-phenyl)-2-[2R-(hydroxy-diphenyl-methyl)-pyrrolidin-1-yl]-acetamide]",> 5,> 5,–
"O=C(CN1CCC[C@@H]1C(O)(c1ccccc1)c1ccccc1)Nc1ccc(C2CCCCC2)cc1 [Compound 83, N-(4-Cyclohexyl-phenyl)-2-[2R-(hydroxy-diphenyl-methyl)-pyrrolidin-1-yl]-acetamide]",0.92,> 5,–
"O=C(CN1CCC[C@H]1CO)Nc1ccc(C2CCCCC2)cc1 [Compound 84, N-(4-Cyclohexyl-phenyl)-2-(2S-hydroxymethyl-pyrrolidin-1-yl)-acetamide]",0.93,> 5,–
"O=C(CN1CCC[C@H]1CO)Nc1ccc(C(=O)c2ccccc2)cc1 [Compound 85, N-(4-Benzoyl-phenyl)-2-(2S-hydroxymethyl-pyrrolidin-1-yl)-acetamide]",2.8,> 5,–
"CC(=O)C1(c2ccccc2)CCN(CC(=O)Nc2ccc(C(=O)c3ccccc3)cc2)CC1 [Compound 86, 2-(4-Acetyl-4-phenyl-piperidin-1-yl)-N-(4-benzoyl-phenyl)-acetamide]",0.001,> 5,–
"CC(=O)C1(c2ccccc2)CCN(CC(=O)Nc2ccc(C3CCCCC3)cc2)CC1 [Compound 87, 2-(4-Acetyl-4-phenyl-piperidin-1-yl)-N-(4-cyclohexyl-phenyl)-acetamide]",0.004,> 5,–
"NC[C@@H]1CCCN1CC(=O)Nc1ccc(C2CCCCC2)cc1 [Compound 91, 2-(2S-Aminomethyl-pyrrolidin-1-yl)-N-(4-cyclohexyl-phenyl)-acetamide]",0.43,> 5,–
"O=C(CN1CCC(O)C1)Nc1ccc(C2CCCCC2)cc1 (stereo not drawn) [Compound 92, N-(4-Cyclohexyl-phenyl)-2-(3-hydroxy-pyrrolidin-1-yl)-acetamide]",1.3,> 5,–
"COC[C@@H]1CCCN1CC(=O)Nc1ccc(C2CCCCC2)cc1 [Compound 93, N-(4-Cyclohexyl-phenyl)-2-(2S-methoxymethyl-pyrrolidin-1-yl)-acetamide]",0.48,> 5,–
"CC1(C)C[C@@H]2C[C@@](C)(CN2CC(=O)Nc2ccc(C3CCCCC3)cc2)C1 [Compound 94, N-(4-Cyclohexyl-phenyl)-2-((1S,5R)-1,3,3-trimethyl-6-aza-bicyclo[3.2.1]oct-6-yl)-acetamide]",3.2,> 5,–

SMILES,IC50 (Human NPY5 receptor) [µM],IC50 (Y2 receptor; [1]) [µM],IC50 (Y2 receptor) [µM]
"O=C(CN1CCC[C@H]1C(=O)OCc1ccccc1)Nc1ccc(C2CCCCC2)cc1 [Compound 95, (2S)-1-[(4-Cyclohexyl-phenylcarbamoyl)-methyl]-pyrrolidin-2-carboxylic acid benzyl ester]",1.6,> 5,–
"COC(=O)[C@@H]1CCCN1CC(=O)Nc1ccc(C2CCCCC2)cc1 [Compound 96, (2S)-1-[(4-Cyclohexyl-phenylcarbamoyl)-methyl]-pyrrolidine-2-carboxylic acid methyl ester]",1.2,> 5,–
"O=C(CN1CCC(Br)CC1)Nc1ccc(C2CCCCC2)cc1 [Compound 97, 2-(4-Bromo-piperidin-1-yl)-N-(4-Cyclohexyl-phenyl)-acetamide]",0.15,> 5,–
"O=C(CN1C[C@H](O)C[C@H]1C(=O)O)Nc1ccc(C2CCCCC2)cc1 [Compound 98, (2S,4R)-1-[(4-Cyclohexyl-phenylcarbamoyl)-methyl]-4-hydroxy-pyrrolidine-2-carboxylic acid]",> 10,> 5,–
"O=C(CN1CCC[C@H]1C(=O)O)Nc1ccc(C2CCCCC2)cc1 [Compound 99, (2S)-1-[(4-Cyclohexyl-phenylcarbamoyl)-methyl]-pyrrolidine-2-carboxylic acid]",8.4,> 5,–
"NC1CCN(CC(=O)Nc2ccc(C3CCCCC3)cc2)C1 (stereo not drawn) [Compound 100, 2-(3-Amino-pyrrolidin-1-yl)-N-(4-cyclohexyl-phenyl)-acetamide]",2.4,> 5,–
"O=C(CN1CCC(O)C1)Nc1ccc(C(=O)c2ccccc2)cc1 (stereo not drawn) [Compound 103, N-(4-Benzoyl-phenyl)-2-(3-hydroxy-pyrrolidin-1-yl)-acetamide]",3,> 5,–
"COC[C@@H]1CCCN1CC(=O)Nc1ccc(C(=O)c2ccccc2)cc1 [Compound 104, N-(4-Benzoyl-phenyl)-2-(2S-methoxymethyl-pyrrolidin-1-yl)-acetamide]",0.49,> 5,–
"CC1(C)C[C@@H]2C[C@@](C)(CN2CC(=O)Nc2ccc(C(=O)c3ccccc3)cc2)C1 [Compound 105, N-(4-Benzoyl-phenyl)-2-((1S,5R)-1,3,3-trimethyl-6-aza-bicyclo[3.2.1]oct-6-yl)-acetamide]",5.1,> 5,–
"O=C(CN1CCC[C@H]1C(=O)OCc1ccccc1)Nc1ccc(C(=O)c2ccccc2)cc1 [Compound 106, (2S)-1-[(4-Benzoyl-phenylcarbamoyl)-methyl]-pyrrolidine-2-carboxylic acid benzyl ester]",3,> 5,–
"COC(=O)[C@@H]1CCCN1CC(=O)Nc1ccc(C(=O)c2ccccc2)cc1 [Compound 107, (2S)-1-[(4-Benzoyl-phenylcarbamoyl)-methyl]-pyrrolidine-2-carboxylic acid methyl ester]",2.9,> 5,–
"O=C(CN1CCC(Br)CC1)Nc1ccc(C(=O)c2ccccc2)cc1 [Compound 108, N-(4-Benzoyl-phenyl)-2-(4-bromo-piperidin-1-yl)-acetamide]",0.97,> 5,–
"O=C(CN1C[C@H](O)C[C@H]1C(=O)O)Nc1ccc(C(=O)c2ccccc2)cc1 [Compound 109, (2S,4R)-1-[(4-Benzoyl-phenylcarbamoyl)-methyl]-4-hydroxy-pyrrolidine-2-carboxylic acid]",> 10,> 5,–
"O=C(CN1CCC[C@H]1C(=O)O)Nc1ccc(C(=O)c2ccccc2)cc1 [Compound 110, (2S)-1-[(4-Benzoyl-phenylcarbamoyl)-methyl]-pyrrolidine-2-carboxylic acid]",8.7,> 5,–
"NC1CCN(CC(=O)Nc2ccc(C(=O)c3ccccc3)cc2)C1 (stereo not drawn) [Compound 112, 2-(3-Amino-pyrrolidin-1-yl)-N-(4-benzoyl-phenyl)-acetamide]",3.9,> 5,–
"O=C(CN1CCC[C@@H]1CO)Nc1ccc(C2CCCCC2)cc1 [Compound 113, N-(4-Cyclohexyl-phenyl)-2-(2R-hydroxymethyl-pyrrolidin-1-yl)-acetamide]",0.7,> 5,–
